Test results from US20250380696A1, “METHOD FOR CONTROLLING UNDESIRED PLANTS AND PROMOTING GROWTH OF USEFUL PLANTS” (ISHIHARA SANGYO KAISHA, LTD., priority 2022, published 2025).

Tests used:
Assay type in all cases: in vivo
[1] = tested on: Italian ryegrass (Lolium multiflorum); test: (9) Herbicidal effect test, pot, spray at 3.2 to 4.0 leaf stage; conditions: 6th day after spraying
Excerpt: (§1) [formula] • X: growth inhibition rate when treated with α (g/ha) of compound A, • Y: growth inhibition rate when treated with β (g/ha) of compound B, • E: growth inhibition rate expected when treated with α (g/ha) of compound A and β (g/ha) of compound B (expected value).
(§2) Upland soil was put in a 1/1,000,000 hectare pot, and seeds of Italian ryegrass (Lolium multiflorum) were sown. When Italian ryegrass reached 3.2 to 4.0 leaf stage, a water-based suspension containing tiafenacil as the active ingredient, prepared by a conventional method for preparing a water-based suspension, and a wettable powder containing tri-allate as the active ingredient, prepared by a conventional method for preparing a wettable powder, an emulsifiable concentrate containing pethoxamid as the active ingredient (tradename: Successor 600, manufactured by Stähler Suisse SA) or an emulsifiable concentrate containing dimethenamid-P as the active ingredient (tradename: Fieldstar P emulsifiable concentrate, manufactured by BASF) were diluted with water (in an amount corresponding to 200 liter per hectare) containing 0.5 vol % of an agricultural spreader (tradename: Destiny HC, manufactured by Winfield Solutions, LLC.) and sprayed by a small spray gun (model: W-101-132G, manufactured by ANEST IWATA Corporation). On the 6th day after spraying, the state of growth of the Italian ryegrass was visually observed, and the growth inhibition rate (%) was obtained in accordance with the evaluation standards described in the above (1) herbicidal effect test, and the results are shown in Table 9. Further, the expected value of the growth inhibition rate (%) was calculated in accordance with the Colby's formula described in the above (1) herbicidal effect test, and the results are also shown in Table 9.

[2] = tested on: Italian ryegrass (Lolium multiflorum); test: (7) Herbicidal effect test, pot, spray at 2.8 to 3.0 leaf stage; conditions: 7th day after spraying
Excerpt: as §1
as §2, with “2.8” for “3.2”, “3.0” for “4.0”, “and” for “and a wettable powder containing tri-allate as the active ingredient, prepared by a conventional method for preparing a wettable powder,”, “Stahler” for “Stähler”, “7th” for “6th”, “7.” for “9.”

[3] = tested on: Italian ryegrass (Lolium multiflorum); test: (16) Herbicidal effect test (comparative test), pot, spray at 2.5 to 3.0 leaf stage; conditions: 4th day after spraying
Excerpt: as §1
Upland soil was put in a 1/1,000,000 hectare pot, and seeds of Italian ryegrass (Lolium multiflorum) were sown. When Italian ryegrass reached 2.5 to 3.0 leaf stage, a water-based suspension containing tiafenacil as the active ingredient, prepared by a conventional method for preparing a water-based suspension, a water-based suspension containing saflufenacil as the active ingredient (tradename: Sharpen, manufactured by BASF), a wettable powder containing fomesafen as the active ingredient, prepared by a conventional method for preparing a wettable powder, an emulsifiable concentrate containing fluthiacet-methyl as the active ingredient (tradename: Attackshot emulsifiable concentrate, manufactured by MARUWA Biochemical Co., Ltd.), a dry flowable containing carfentrazone-ethyl as the active ingredient (tradename: Task DF, manufactured by ISHIHARA SANGYO KAISHA, LTD.) or a water-based suspension containing pyraflufen-ethyl as the active ingredient (tradename: ECOPART flowable, manufactured by NIHON NOHYAKU CO., LTD.), and an emulsifiable concentrate containing S-metolachlor as the active ingredient (tradename: Dual Gold, manufactured by Syngenta) or a wettable powder containing metribuzin as the active ingredient (tradename: SENCOR wettable powder, manufactured by Bayer Crop Science), were diluted with water (in an amount corresponding to 200 liter per hectare) containing 0.5 vol % of an agricultural spreader (tradename: Destiny HC, manufactured by Winfield Solutions, LLC.) and sprayed by a small spray gun (model: W-101-132G, manufactured by ANEST IWATA Corporation). On the 4th day after spraying, the state of growth of the Italian ryegrass was visually observed, and the growth inhibition rate (%) was obtained in accordance with the evaluation standards described in the above (1) herbicidal effect test, and the results are shown in Table 16. Further, the expected value of the growth inhibition rate (%) was calculated in accordance with the Colby's formula described in the above (1) herbicidal effect test, and the results are also shown in Table 16.

[4] = tested on: forage corn (cultivar: SNOW DENT OTOHA); test: (17) Plant growth promotion effect test (corn), Italian ryegrass sown; conditions: 20th day after the sowing, above-ground part
Excerpt: Upland soil was put in a 1/1,000,000 hectare pot, and seeds of Italian ryegrass (Lolium multiflorum) were sown. When the Italian ryegrass reached 2.5 to 3.0 leaf stage, a water-based suspension containing tiafenacil as the active ingredient, prepared by a conventional method for preparing a water-based suspension, and an emulsifiable concentrate containing S-metolachlor as the active ingredient (tradename: Dual Gold, manufactured by Syngenta) or a wettable powder containing metribuzin as the active ingredient (tradename: SENCOR wettable powder, manufactured by Bayer Crop Science) were diluted with water (in an amount corresponding to 200 liter per hectare) containing 0.5 vol % of an agricultural spreader (tradename: Destiny HC, manufactured by Winfield Solutions, LLC.) and sprayed by a small spray gun (model: W-101-132G, manufactured by ANEST IWATA Corporation). Seeds of forage corn (cultivar: SNOW DENT OTOHA, manufactured by SNOW BRAND SEED Co., Ltd.) were sown in the pot after spraying. On the 20th day after the sowing, the above-ground part of the forage corn was reaped, and its weight was measured to obtain the raw weight.

Compound: CC(C)N(C(=O)SCC(Cl)=C(Cl)Cl)C(C)C [tri-allate]
- inhibition at 937.5 g/ha ([1]; Lolium multiflorum, Dose 937.5 g/ha, read-out: Growth inhibition rate (%) Measured value): 3%

Compound: CCOCCN(C(=O)CCl)C(=C(C)C)c1ccccc1 [pethoxamid]
- Growth inhibition rate (%) Measured value ([2]; Dose 93.75 g/ha): 0%
- Growth inhibition rate (%) Measured value ([2]; Dose 187.5 g/ha): 0%
- Growth inhibition rate (%) Measured value ([2]; Dose 375 g/ha): 7%
- Growth inhibition rate (%) Measured value ([2]; Dose 750 g/ha): 7%
- Growth inhibition rate (%) Measured value ([2]; Dose 1500 g/ha): 12%
- Growth inhibition rate (%) Measured value ([1]; Dose 312.5 g/ha): 5%
- Growth inhibition rate (%) Measured value ([1]; Dose 437.5 g/ha): 3%
- Growth inhibition rate (%) Measured value ([1]; Dose 625 g/ha): 8%

Compound: COC(=O)CCNC(=O)C(C)Sc1cc(-n2c(=O)cc(C(F)(F)F)n(C)c2=O)c(F)cc1Cl (centres unmarked) [tiafenacil]
- Growth inhibition rate (%) Measured value ([3]; Dose 12.5 g/ha): 38%
- Growth inhibition rate (%) Measured value ([2]; Dose 6.25 g/ha): 15%
- Growth inhibition rate (%) Measured value ([2]; Dose 12.5 g/ha): 37%
- Growth inhibition rate (%) Measured value ([2]; Dose 25 g/ha): 33%
- Raw weight (g) of forage corn ([4]; Dose 12.5 g/ha): 8.5 g
- Growth inhibition rate (%) Measured value ([1]; Dose 6.25 g/ha): 30%

Compound: CSc1nnc(C(C)(C)C)c(=O)n1N [metribuzin]
- inhibition at 18.75 g/ha ([3]; Lolium multiflorum, Dose 18.75 g/ha, read-out: Growth inhibition rate (%) Measured value): 7%
- Raw weight (g) of forage corn ([4]; Dose 18.75 g/ha): 6.2 g

Compound: COC[C@H](C)N(C(=O)CCl)c1c(C)csc1C [dimethenamid-P]
- Growth inhibition rate (%) Measured value ([2]; Dose 60 g/ha): 0%
- Growth inhibition rate (%) Measured value ([2]; Dose 120 g/ha): 3%
- Growth inhibition rate (%) Measured value ([2]; Dose 240 g/ha): 8%
- Growth inhibition rate (%) Measured value ([2]; Dose 750 g/ha): 12%
- Growth inhibition rate (%) Measured value ([2]; Dose 1500 g/ha): 15%
- Growth inhibition rate (%) Measured value ([1]; Dose 500 g/ha): 33%
- Growth inhibition rate (%) Measured value ([1]; Dose 625 g/ha): 40%

Compound: CCc1cccc(C)c1N(C(=O)CCl)[C@@H](C)COC [S-metolachlor]
- Growth inhibition rate (%) Measured value ([3]; Dose 750 g/ha): 3%
- Raw weight (g) of forage corn ([4]; Dose 750 g/ha): 5.1 g
